From patent US20070105085A1 (Scripps Research, published 2007)
“Also recorded” adds a separate entry of the source.

What was measured:
MsbA [1] = target: MsbA (Escherichia coli, UniProt P60752); settings: cited from earlier work
[2] = target: MsbA from Salmonella typhimurium (detergent solubilized, purified) (Salmonella typhimurium) (UniProt P63359); assay: cell-based or functional assay
MsbA [3] = target: T1, MsbA (Salmonella typhimurium, UniProt P63359); assay: ATPase activity of detergent solubilized MsbA, linked enzyme assay; format: biochemical
T1 construct: 23-residue pET19b fusion leader with deca-histidine tag (N); made in house; host or cells: E. coli BL21 (DE3)
Experimental: ATPase Activity. ATPase activity was measured using an ATP-regenerating system described by Vogel and Steinhart, and modified by Urbatsch et al. Briefly, 1 μg of MsbA was added to 100 μl of Linked Enzyme (LE) buffer at 37° C. containing 10 mM ATP, 12 mM MgCl2, 6 mM phosphoenolpyruvate (PEP), 1 mM NADH, 10 units of lactate dehydrogenase (LDH), 10 units of pyruvate kinase (PK), and 50 mM Tris-HCl, pH 7.5. ATP hydrolysis was measured as the decrease in absorbance of NADH at 340 nm using a DXT880 multiplate spectrofluorimeter (Beckman-Coulter). Activity of MsbA in the presence of either E. coli polar lipids (10 μg/ml) or a non-ABC, ATPase inhibitor cocktail (1 mM EGTA, 1 mM NaN3, 0.2 mM ouabain) was measured (FIGS. 28-30). Each data point is the average of 5 independent measurements with standard error bars shown.

P-gp = settings: human and murine MDR cell lines; cited from earlier work
Wild type E. coli cells = assay: Doxorubicin retention in wild type E. coli cells; format: cell-based; settings: 50 μM PSC
[4] = tested on: ΔacrAB E. coli cells overexpressing MsbA; assay: Doxorubicin retention in ΔacrAB E. coli cells overexpressing MsbA; format: cell-based; settings: 0-100 μM PSC; change of fluorescence at 400 sec versus 0 sec; P<0.05
Experimental: Doxorubicin Retention. A pET 15b vector containing the msbA gene from Salmonella typhimurium LT2 was transformed into an E. coli strain deficient in the multiple-drug efflux pump AcrAB (ECΔacrAB). Single colony cultures were grown to optical density (OD600 nm) of 0.6 in the presence of 1 mM IPTG to induce overexpression of MsbA, harvested and washed three times with 100 mM potassium phosphate buffer (pH 7.5) containing 5 mM MgSO4 and concentrated to an OD600 of 20. Cellular accumulation of doxorubicin was accomplished by incubation of cells with 11.5 μM doxorubicin and 40 μM carbonyl cyanide m-chlorophenylhydrazone (CCCP) while shaking for 1 hour at 37° C. The cells were then washed three times and incubated for 15 minutes at 37° C. with 40 μM CCCP and 0, 1, 10, 25, 50 or 100 μM PSC. Efflux was initiated by addition of 25 mM glucose and fluorescence in the cell suspensions was monitored at 16-second time intervals with a DXT880 multiplate spectrofluorimeter (Beckman-Coulter) with excitation at 485 nm and emission at 595 nm for 900 seconds. […] Cellular doxorubicin retention was measured as a change of fluoresence at time=400 sec versus time=0 sec. […] Results are the average of 3 experiments, with 3-8 measurements per experiment. Statistical significance was assigned with the two-way analysis of variance (ANOVA). A P<0.05 is considered significant.

[5] = target: the molecule itself; assay: X-ray crystal structure of MsbA.ADP.Vi.Ra LPS, 4.2 Å

Sequence of MsbA (Escherichia coli, UniProt P60752) (P60752 whole entry, species assumed): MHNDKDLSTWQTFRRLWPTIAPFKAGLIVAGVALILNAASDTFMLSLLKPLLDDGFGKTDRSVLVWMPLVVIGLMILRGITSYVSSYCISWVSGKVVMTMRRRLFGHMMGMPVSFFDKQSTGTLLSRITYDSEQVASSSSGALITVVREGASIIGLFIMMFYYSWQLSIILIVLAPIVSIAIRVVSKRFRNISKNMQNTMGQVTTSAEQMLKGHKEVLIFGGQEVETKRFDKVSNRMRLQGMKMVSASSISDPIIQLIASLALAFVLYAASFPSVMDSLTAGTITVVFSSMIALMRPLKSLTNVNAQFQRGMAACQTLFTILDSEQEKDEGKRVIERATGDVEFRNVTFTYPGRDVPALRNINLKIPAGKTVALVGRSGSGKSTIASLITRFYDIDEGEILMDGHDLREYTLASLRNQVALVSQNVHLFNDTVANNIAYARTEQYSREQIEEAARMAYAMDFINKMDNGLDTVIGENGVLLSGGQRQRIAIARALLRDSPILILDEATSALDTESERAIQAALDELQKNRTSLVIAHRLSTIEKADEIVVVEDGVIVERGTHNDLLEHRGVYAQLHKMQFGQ

Molecule: lipid A
- stimulation of MsbA ATPase (MsbA [1]; studies in vitro): specifically stimulated

Molecule: CCCCCCCCCCCCCC(=O)O[C@H](CCCCCCCCCCC)CC(=O)O[C@@H]1[C@@H](NC(=O)C[C@@H](CCCCCCCCCCC)OC(=O)CCCCCCCCCCC)[C@H](OC[C@H]2O[C@H](OP(=O)(O)O)[C@H](NC(=O)C[C@H](O)CCCCCCCCCCC)[C@@H](OC(=O)C[C@H](O)CCCCCCCCCCC)[C@@H]2O)O[C@H](CO[C@]2(C(=O)O)C[C@@H](O[C@]3(C(=O)O)C[C@@H](O)[C@@H](O)[C@@H]([C@H](O)CO)O3)[C@@H](O)[C@@H]([C@H](O)CO)O2)[C@H]1OP(=O)(O)O [Kdo2-lipid A]
- stimulatory effect on ATP activity of MsbA (MsbA [1]; compared with Ra LPS): larger stimulatory effect

Molecule: PSC-833, [3'-Desoxy-3'-oxo-MeBmt]1-[Val]2-Ciclosporin (peptide)
- ATPase activity of detergent solubilized MsbA (linked enzyme assay) (% over basal activity) [2]: < 55

Molecule: COc1cccc2c1C(=O)c1c(O)c3c(c(O)c1C2=O)C[C@@](O)(C(=O)CO)C[C@@H]3O[C@H]1C[C@H](N)[C@H](O)[C@H](C)O1 [Doxorubicin, doxorubicin]
- effect on ATPase activity (MsbA [3]): stimulates ATPase activity in a dose dependent manner
- concentration of maximum stimulation of ATPase activity (MsbA [3]; dose dependent stimulation): 100 µM

Molecule: C/C=C/C[C@@H](C)C(=O)[C@H]1C(=O)N[C@@H](C(C)C)C(=O)N(C)CC(=O)N(C)[C@@H](CC(C)C)C(=O)N[C@@H](C(C)C)C(=O)N(C)[C@@H](CC(C)C)C(=O)N[C@@H](C)C(=O)N[C@H](C)C(=O)N(C)[C@@H](CC(C)C)C(=O)N(C)[C@@H](CC(C)C)C(=O)N(C)[C@@H](C(C)C)C(=O)N1C [PSC, [3′-Desoxy-3′-oxo-MeBmt]^1-[Val]^2-Ciclosporin]
- stimulation of ATPase over basal activity (MsbA [3]; PSC at concentrations of 50-250 μM, basal activity 1.25 μmol ATP/min/mg of protein): up to 55%
- effect on MsbA ATPase activity (MsbA [3]; concentrations less than 50 μM): modulated
- effect on doxorubicin stimulated ATPase activity of MsbA (MsbA [3]; doxorubicin stimulated): modulates doxorubicin stimulated ATPase activity
- inhibition of P-gp mediated drug accumulation (P-gp): potent inhibitor
- increase in doxorubicin retention (Wild type E. coli cells): less than 10%
- doxorubicin retention [4]: alters the retention of doxorubicin; also recorded: mediates doxorubicin retention

B1: MsbA from Salmonella typhimurium (detergent solubilized, purified) (other)
chain: MHNDKDLSTWQTFRRLWPTIAPFKAGLIVAGIALILNAASDTFMLSLLKPLLDDGFGKTDRSVLLWMPLVVIGLMILRGITSYISSYCISWVSGKVVMTMRRRLFGHMMGMPVAFFDKQSTGTLLSRITYDSEQVASSSSGALITVVREGASIIGLFIMMFYYSWQLSIILVVLAPIVSIAIRVVSKRFRSISKNMQNTMGQVTTSAEQMLKGHKEVLIFGGQEVETKRFDKVSNKMRLQGMKMVSASSISDPIIQLIASLALAFVLYAASFPSVMDSLTAGTITVVFSSMIALMRPLKSLTNVNAQFQRGMAACQTLFAILDSEQEKDEGKRVIDRATGDLEFRNVTFTYPGREVPALRNINLKIPAGKTVALVGRSGSGKSTIASLITRFYDIDEGHILMDGHDLREYTLASLRNQVALVSQNVHLFNDTVANNIAYARTEEYSREQIEEAARMAYAMDFINKMDNGLDTIIGENGVLLSGGQRQRIAIARALLRDSPILILDEATSALDTESERAIQAALDELQKNRTSLVIAHRLSTIEQADEIVVVEDGIIVERGTHSELLAQHGVYAQLHKMQFGQ
notes: also called ST-MsbA; ABC Transporter MsbA
- binding result [5]: binds
